Literature values in paper PMC7765247 (Bioorganic & medicinal chemistry letters, 2020).

Test system: PC-3 cells
Conditions: anoxia (< 10 ppm oxygen in gas phase); ref Patterson el. al.

For `CS(=O)(=O)OCCN(CCBr)c1c(C(=O)NCCO)cc([N+](=O)[O-])cc1[N+](=O)[O-]` [Compound 16, PR-104A], the “hypoxia-selectivity ratio in PC-3 cells” value is listed as “approximately 15”.
